Laboratory results taken from patent publication US20080194585A1, “Fungicidal Pyrazine Derivatives” (priority 2005, published 2008).
Marks after values point to notes of the source that are not given here.

What was measured:
[1] = tested on: Erysiphe graminis f. sp. tritici; experiment: Test L: wheat powdery mildew, preventive spray on wheat seedlings
fusarium graminearium = experiment: Test I: wheat head scab, preventive spray on wheat seedlings; details: 200 ppm
Method: (the causal agent of wheat head scab) and incubated in a saturated atmosphere at 20° C. for 72 h, and then moved to a growth chamber at 22° C. for 5 days, after which disease ratings were made.

[2] = tested on: Colletotrichum orbiculare; experiment: Test B: cucumber Colletotrichum anthracnose, preventive spray on cucumber seedlings
Plasmopara viticola = experiment: Test D: grape downy mildew, spray after inoculation of grape seedlings; type: in vivo; details: 200 ppm
Text: Upon removal, disease ratings were made. […] A dash (-) indicates no test results.

Septoria nodorum = experiment: Test H: wheat glum blotch, preventive spray on wheat seedlings
Method: (the causal agent of wheat glum blotch) and incubated in a saturated atmosphere at 20° C. for 48 h, and then moved to a growth chamber at 22° C. for 5 days, after which disease ratings were made.

Septoria tritici = experiment: Test J: wheat leaf blotch, preventive spray on wheat seedlings; type: in vivo
Text: A dash (-) indicates no test results.

Phytophthora infestans = experiment: whole plant or invertebrate; type: in vivo; details: 200 ppm
Rhizoctonia oryzae = experiment: Test G: turf brown patch, preventive spray on creeping bent grass seedlings
Method: (the causal agent of turf brown patch) and incubated in a saturated atmosphere at 27° C. for 24 h, and then moved to a growth chamber at 27° C. for 5 days, after which disease ratings were made.

[3] = tested on: Puccinia recondita f. sp. tritici; experiment: Test K: wheat leaf rust, preventive spray on wheat seedlings
Pythium aphanidermatum = experiment: Test A: bluegrass pythium blight, preventive spray on bluegrass seedlings; details: 200 ppm
Botrytis cinerea = experiment: Test E: tomato botrytis, preventive spray on tomato seedlings

Structure (SMILES)	Test L disease control rating ([1]; 200 ppm)	Test I disease control rating (fusarium graminearium)	Test B disease control rating ([2]; 200 ppm)	Test D disease control rating (Plasmopara viticola)	Test H disease control rating (Septoria nodorum; 200 ppm)	Test J disease control rating (Septoria tritici; 200 ppm)	Test F disease control rating (Phytophthora infestans)	Test G disease control rating (Rhizoctonia oryzae; 200 ppm)	Test K disease control rating ([3]; 200 ppm)	Test A disease control rating (Pythium aphanidermatum)	Test E disease control rating (Botrytis cinerea; 200 ppm)	Test L disease control rating ([1]; 40 ppm (*))	Test B disease control rating ([2]; 40 ppm (*))	Test H disease control rating (Septoria nodorum; 40 ppm (*))	Test J disease control rating (Septoria tritici; 40 ppm (*))	Test G disease control rating (Rhizoctonia oryzae; 40 ppm (*))	Test K disease control rating ([3]; 40 ppm (*))	Test E disease control rating (Botrytis cinerea; 40 ppm (*))
O=c1c(-n2cncn2)nc(Cl)c(-c2c(F)cccc2F)n1CC1CC1 [compound 17]	99%	94%	0%	54%	100%	87%	0%	99%	100%	0%	100%	–	–	–	–	–	–	–
CC(C)Cn1c(-c2ccc(Cl)cc2)c(Cl)nc(-n2cccn2)c1=O [compound 22]	0%	0%	0%	0%	0%	98%	0%	0%	79%	0%	100%	–	–	–	–	–	–	–
CCCC(C)n1c(-c2c(F)cccc2F)c(Cl)nc(-n2cccn2)c1=O (stereo not drawn) [compound 25]	100%	0%	100%	0%	100%	100%	0%	100%	100%	0%	99%	–	–	–	–	–	–	–
CC(C)n1c(-c2c(F)cccc2F)c(Cl)nc(-n2cccn2)c1=O [compound 26]	100%	0%	99%	16%	100%	96%	0%	92%	100%	0%	100%	–	–	–	–	–	–	–
CCCn1c(-c2c(F)cccc2F)c(Cl)nc(-n2cccn2)c1=O [compound 27]	100%	0%	99%	47%	100%	100%	0%	67%	100%	0%	100%	–	–	–	–	–	–	–
CCCCCn1c(-c2c(F)cccc2F)c(Cl)nc(-n2cccn2)c1=O [compound 28]	97%	0%	98%	0%	99%	100%	0%	31%	97%	0%	92%	–	–	–	–	–	–	–
CC(C)C(C)n1c(-c2c(F)cccc2F)c(Cl)nc(-n2cccn2)c1=O (stereo not drawn) [compound 29]	98%	0%	99%	0%	99%	100%	0%	95%	100%	0%	80%	–	–	–	–	–	–	–
C=C(C)Cn1c(-c2c(F)cccc2F)c(Cl)nc(-n2cccn2)c1=O [compound 30]	100%	0%	99%	0%	100%	100%	0%	98%	100%	0%	99%	–	–	–	–	–	–	–
O=c1c(-n2cccn2)nc(Cl)c(-c2c(F)cccc2F)n1CC1CCCCC1 [compound 31]	69%	0%	0%	0%	73%	100%	0%	0%	88%	0%	97%	–	–	–	–	–	–	–
CCC(C)Cn1c(-c2c(F)cccc2F)c(Cl)nc(-n2ccnn2)c1=O (stereo not drawn) [compound 60]	–	0%	–	0%	–	–	0%	–	–	0%	–	0* %	0* %	0* %	40* %	0* %	68* %	95* %
CCC(C)Cn1c(-c2c(F)cccc2F)c(Cl)nc(-n2ccnc2)c1=O (stereo not drawn) [compound 61]	0%	0%	0%	0%	0%	40%	0%	0%	0%	0%	0%	–	–	–	–	–	–	–
CCC(C)Cn1c(-c2c(F)cccc2F)c(Cl)nc(-n2nc(C)cc2C)c1=O (stereo not drawn) [compound 62]	0%	0%	0%	0%	0%	15%	0%	0%	83%	0%	31%	–	–	–	–	–	–	–
CCC(C)Cn1c(-c2c(F)cccc2F)c(Cl)nc(-n2ccc(C(F)(F)F)n2)c1=O (stereo not drawn) [compound 63]	0%	0%	0%	0%	0%	90%	0%	72%	89%	0%	0%	–	–	–	–	–	–	–
CCC(C)Cn1c(-c2c(F)cccc2F)c(Cl)nc(-n2nc(C)cc2C(F)(F)F)c1=O (stereo not drawn) [compound 64]	0%	0%	0%	16%	0%	71%	0%	24%	97%	0%	54%	–	–	–	–	–	–	–
CCC(C)Cn1c(-c2c(F)cccc2F)c(Cl)nc(-n2ccc(Br)n2)c1=O (stereo not drawn) [compound 65]	0%	0%	33%	0%	0%	100%	0%	83%	98%	0%	99%	–	–	–	–	–	–	–
CC(C)Cn1c(-c2c(F)cccc2F)c(Cl)nc(NN=C2CCCC2)c1=O [compound 73]	0%	0%	0%	0%	0%	59%	0%	0%	80%	0%	97%	–	–	–	–	–	–	–
Cc1ccc(-c2c(Cl)nc(-n3cncn3)c(=O)n2CC(C)C)c(C)c1 [compound 79]	92%	0%	83%	0%	100%	100%	0%	46%	97%	0%	100%	–	–	–	–	–	–	–
CC(C)Cn1c(-c2cc(Br)c3c(c2)OCO3)c(Cl)nc(-n2cccn2)c1=O [compound 89]	0%	0%	0%	0%	0%	0%	0%	0%	0%	0%	0%	–	–	–	–	–	–	–
